{"source": "PubChem BioAssay AID1259411", "about": "(Chemical Carcinogenesis Research Information System (CCRIS), 2018)", "test_system": "rodent carcinogenicity bioassays, tumor incidence", "test": "CCRIS carcinogenicity studies", "in_short": "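Archive of carcinogenicity, mutagenicity, tumor promotion and tumor inhibition results drawn from journals, NCI reports and other sources, expert-reviewed; covers 1985-2011 and is no longer updated.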", "note": "The source made the active and inactive calls. How the calls were made is not given here."}
{"smiles": "COC(=O)Nc1nc2ccccc2[nH]1", "values": [{"measurement": "carcinogen call", "setting": "Species: Mouse, Strain/Sex: CD-1/Female (80/sex/dose), Route: Oral, Dose: 0, 500, 1500, 7500 ppm in feed for 2 yr, Dose: 0, 500, 1500, 7500 ppm in feed for 2 yr, Tumor Site: Type of Lesion: Liver: Hepatocellular adenoma (0/68, 5/62, 5/66, 3/71), Hepatocellular carcinoma (2/68, 4/62, 15/66, 12/71), Combined (2, Tumor Site: Type of Lesion: Liver: Hepatocellular adenoma (0/68, 5/62, 5/66, 3/71), Hepatocellular carcinoma (2/68, 4/62, 15/66, 12/71), Combined (2", "result": "active; positive: purity 99.3%"}, {"measurement": "carcinogen call", "setting": "Species: Mouse, Strain/Sex: CD-1/Male (80/sex/dose); Route: Oral; Dose: 0; 500; 1500; 7500 ppm in feed for 2 yr except for highest dose where animals terminated at week 73 with 29% survival); Dose: 0; 500; 1500; 7500 ppm in feed for 2 yr except for highest dose where animals terminated at week 73 with 29% survival)", "result": "inactive; negative: purity 99.3%"}]}
{"smiles": "Cc1ncc[nH]1", "values": [{"measurement": "carcinogen call", "setting": "Species: MOUSE, Strain/Sex: B6C3F1/FEMALE, Route: ORAL (DIET), Dose: 0, 625, 1250, 2500 PPM FOR 105 WKS (STUDY DURATION: 105 WKS), Dose: 0, 625, 1250, 2500 PPM FOR 105 WKS (STUDY DURATION: 105 WKS), Tumor Site: Type of Lesion: LIVER: HEPATOCELLULAR ADENOMA", "result": "active; positive"}, {"measurement": "carcinogen call", "setting": "Species: MOUSE, Strain/Sex: B6C3F1/MALE, Route: ORAL (DIET), Dose: 0, 625, 1250, 2500 PPM FOR 105 WKS (STUDY DURATION: 105 WKS), Dose: 0, 625, 1250, 2500 PPM FOR 105 WKS (STUDY DURATION: 105 WKS), Tumor Site: Type of Lesion: LIVER: HEPATOCELLULAR ADENOMA OR CARCINOMA, THYROID: FOLLICULAR CELL ADENOMA", "result": "active; positive"}, {"measurement": "carcinogen call", "setting": "Species: RAT, Strain/Sex: F344/N/FEMALE, Route: ORAL (DIET), Dose: 0, 1000, 2500, 5000 PPM FOR 106 WKS (STUDY DURATION: 106 WKS), Dose: 0, 1000, 2500, 5000 PPM FOR 106 WKS (STUDY DURATION: 106 WKS), Tumor Site: Type of Lesion: THYROID: FOLLICULAR CELL ADENOMA OR CARCINOMA", "result": "active; positive"}, {"measurement": "carcinogen call", "setting": "Species: RAT, Strain/Sex: F344/N/MALE, Route: ORAL (DIET), Dose: 0, 300, 1000, 3000 PPM FOR 106 WKS (STUDY DURATION: 106 WKS), Dose: 0, 300, 1000, 3000 PPM FOR 106 WKS (STUDY DURATION: 106 WKS)", "result": "inactive; negative"}]}
{"smiles": "NNC(N)=O", "values": [{"measurement": "carcinogen call", "setting": "Species: MOUSE, Strain/Sex: SWISS/FEMALE, Route: ORAL, Dose: 0.0625% IN DRINKING WATER FOR LIFE, Tumor Site: Type of Lesion: BLOOD VESSELS: ANGIOMA, ANGIOSARCOMA, LUNG", "result": "active; positive"}, {"measurement": "carcinogen call", "setting": "Species: RAT, Strain/Sex: STRAIN-CD/FEMALE, Route: ORAL, Dose: 500, 1000 PPM IN DIET FOR 78 WK (LOW DOSE) OR 32 WK (HIGH DOSE)", "result": "inactive; negative"}]}
{"smiles": "FCC(F)(F)F", "values": [{"measurement": "carcinogen call", "setting": "Species: MOUSE, Strain/Sex: B6C3F1/FEMALE, Route: INHALATION, Dose: 0, 2500, 15000, 75000 PPM SNOUT-ONLY INHALATION 1 HR/D FOR AT LEAST 104 WK (STUDY DURATION: 106 WK), Dose: 0, 2500, 15000, 75000 PPM SNOUT-ONLY INHALATION 1 HR/D FOR AT LEAST 104 WK (STUDY DURATION: 106 WK)", "result": "inactive; negative"}, {"measurement": "carcinogen call", "setting": "Species: MOUSE, Strain/Sex: B6C3F1/MALE, Route: INHALATION, Dose: 0, 2500, 15000, 75000 PPM SNOUT-ONLY INHALATION 1 HR/D FOR AT LEAST 104 WK (STUDY DURATION: 106 WK), Dose: 0, 2500, 15000, 75000 PPM SNOUT-ONLY INHALATION 1 HR/D FOR AT LEAST 104 WK (STUDY DURATION: 106 WK)", "result": "inactive; negative"}, {"measurement": "carcinogen call", "setting": "Species: RAT, Strain/Sex: ALPK:APFSD/FEMALE, Route: INHALATION, Dose: 0, 2500, 10000, 50000 PPM 6 HR/D 5 D/WK FOR 104 WK (STUDY DURATION: 104 WK), Dose: 0, 2500, 10000, 50000 PPM 6 HR/D 5 D/WK FOR 104 WK (STUDY DURATION: 104 WK)", "result": "inactive; negative"}, {"measurement": "carcinogen call", "setting": "Species: RAT, Strain/Sex: ALPK:APFSD/MALE, Route: INHALATION, Dose: 0, 2500, 10000, 50000 PPM 6 HR/D 5 D/WK FOR 104 WK (STUDY DURATION: 104 WK), Dose: 0, 2500, 10000, 50000 PPM 6 HR/D 5 D/WK FOR 104 WK (STUDY DURATION: 104 WK), Tumor Site: Type of Lesion: TESTES: LEYDIG CELL ADENOMA", "result": "active; positive"}, {"measurement": "carcinogen call", "setting": "Species: RAT, Strain/Sex: WISTAR/FEMALE, Route: INHALATION, Dose: 0, 2500, 10000, 50000 PPM SNOUT-ONLY INHALATION 1 HR/D FOR AT LEAST 108 WK (STUDY DURATION: 110 WK), Dose: 0, 2500, 10000, 50000 PPM SNOUT-ONLY INHALATION 1 HR/D FOR AT LEAST 108 WK (STUDY DURATION: 110 WK)", "result": "inactive; negative"}, {"measurement": "carcinogen call", "setting": "Species: RAT, Strain/Sex: WISTAR/MALE, Route: INHALATION, Dose: 0, 2500, 10000, 50000 PPM SNOUT-ONLY INHALATION 1 HR/D FOR AT LEAST 108 WK (STUDY DURATION: 110 WK), Dose: 0, 2500, 10000, 50000 PPM SNOUT-ONLY INHALATION 1 HR/D FOR AT LEAST 108 WK (STUDY DURATION: 110 WK)", "result": "inactive; negative"}]}
{"smiles": "Cc1cc(C)nc(NS(=O)(=O)c2ccc(N)cc2)n1", "values": [{"measurement": "carcinogen call", "setting": "Species: RAT, Strain/Sex: F344/FEMALE, Route: ORAL, TRANS-PLACENTAL, Dose: 0, 10, 40, 600 1200, 2400 PPM IN DIET FOR 24 MO (PARENTS FED 0; 10; 600; 1200; 2400 PPM RESPECTIVELY IN DIET) (STUDY DUR, Dose: 0, 10, 40, 600 1200, 2400 PPM IN DIET FOR 24 MO (PARENTS FED 0; 10; 600; 1200; 2400 PPM RESPECTIVELY IN DIET) (STUDY DUR, Tumor Site: Type of Lesion: THYROID GLAND: FOLLICULAR CELL ADENOCARCINOMA", "result": "active; positive"}, {"measurement": "carcinogen call", "setting": "Species: RAT, Strain/Sex: F344/MALE, Route: ORAL, TRANS-PLACENTAL, Dose: 0, 10, 40, 600 1200, 2400 PPM IN DIET FOR 24 MO (PARENTS FED 0; 10; 600; 1200; 2400 PPM RESPECTIVELY IN DIET) (STUDY DUR, Dose: 0, 10, 40, 600 1200, 2400 PPM IN DIET FOR 24 MO (PARENTS FED 0; 10; 600; 1200; 2400 PPM RESPECTIVELY IN DIET) (STUDY DUR, Tumor Site: Type of Lesion: THYROID GLAND: FOLLICULAR CELL ADENOCARCINOMA", "result": "active; positive"}]}
{"smiles": "O=[Si]=O", "values": [{"measurement": "carcinogen call", "setting": "Species: MOUSE, Strain/Sex: STRAIN-A/MALE, Route: INTRATRACHEAL, Dose: 0, 9.75 MG/KG IN SALINE 1/WK FOR 15 WK (STUDY DURATION: 20 WK)", "result": "inactive; negative"}, {"measurement": "carcinogen call", "setting": "Species: RAT, Strain/Sex: F344/FEMALE, Route: INHALATION, Dose: 0, 50 MG/M3 6 HR/D 5 D/WK FOR UP TO 24 MO (STUDY DURATION: 24 MO), Tumor Site: Type of Lesion: LUNG: CARCINOMA OR ADENOMA", "result": "active; positive"}, {"measurement": "carcinogen call", "setting": "Species: RAT, Strain/Sex: F344/MALE,FEMALE, Route: INHALATION, Dose: 0, 1 MG/M3 6 HR/D 5 D/WK FOR 24 MO (STUDY DURATION: 25.5 MO), Tumor Site: Type of Lesion: LUNG: TUMOR", "result": "active; positive"}, {"measurement": "carcinogen call", "setting": "Species: RAT, Strain/Sex: F344/MALE, Route: INHALATION, Dose: 0, 50 MG/M3 6 HR/D 5 D/WK FOR UP TO 24 MO (STUDY DURATION: 24 MO)", "result": "inactive; negative"}, {"measurement": "carcinogen call", "setting": "Species: RAT, Strain/Sex: INBRED-W/MALE, FEMALE, Route: INTRAPERITONEAL, Dose: 20 MG ALKALINE-WASHED MIN-U-SIL CRYSTALS (A COMMERCIAL FINE QUARTZ, 99% PURE) IN 0.4 ML SALINE AUTOCLAVED SUSPENSION (ST, Tumor Site: Type of Lesion: HEMATOPOIETIC SYSTEM: THYMOMA OR LYMPHOSARCOMA, LYMPHOMA", "result": "active; positive"}, {"measurement": "carcinogen call", "setting": "Species: RAT, Strain/Sex: INBRED-W/MALE, FEMALE, Route: INTRAPLEURAL, Dose: 20 MG ALKALINE-WASHED CRYSTALS (CRISTABOLITE FROM QUARTZ EXPOSED TO HIGH TEMPERATURE) IN A 0.4 ML SALINE AUTOCLAVED SUSP, Tumor Site: Type of Lesion: HEMATOPOIETIC SYSTEM: MALIGNANT HISTIOCYTIC LYMPHOMA, THYMOMA OR LYMPHOSARCOMA, LYMPHOMA", "result": "active; positive"}, {"measurement": "carcinogen call", "setting": "Species: RAT, Strain/Sex: INBRED-W/MALE, FEMALE, Route: INTRAPLEURAL, Dose: 20 MG ALKALINE-WASHED CRYSTALS <5 µM IN SIZE IN A 0.4 ML SALINE AUTOCLAVED SUSPENSION INTO RIGHT AXILLA (STUDY DURATION:, Tumor Site: Type of Lesion: HEMATOPOIETIC SYSTEM: MALIGNANT HISTIOCYTIC LYMPHOMA, MALIGNANT TUMOR", "result": "active; positive"}, {"measurement": "carcinogen call", "setting": "Species: RAT, Strain/Sex: INBRED-W/MALE, FEMALE, Route: INTRAPLEURAL, Dose: 20 MG ALKALINE-WASHED MIN-U-SIL CRYSTALS (A COMMERCIAL FINE QUARTZ, 99% PURE) IN 0.4 ML SALINE AUTOCLAVED SUSPENSION INT, Tumor Site: Type of Lesion: HEMATOPOIETIC SYSTEM: LYMPHOMA", "result": "active; positive"}, {"measurement": "carcinogen call", "setting": "Species: Rat, Strain/Sex: Wistar/Female (48/group), Route: Intratracheal, Dose: 3 mg of 0.09-0.2 um particles given as 10 instillations before wk 26, study duration 112 wk or no treatment, Tumor Site: Type of Lesion: Lung: Bronchiolo-alveolar adenoma (2/37 experimental animals vs 0/46 control animals)", "result": "active; positive, low incidence of benign tumors."}]}
